{"source": "paper PMC4558462", "about": "“A new small molecule inhibitor of soluble guanylate cyclase” (Bioorganic & Medicinal Chemistry, 2015)", "key": {"full-length enzyme (sGC)": {"target": "T1, full-length enzyme (sGC) (Homo sapiens, UniProt Q02108+Q02153)", "T1 construct": "Full-length human recombinant guanylyl cyclase (soluble); purchased Enzo lifesciences ALX-201-177", "T1 sequence (Q02108 1-690)": "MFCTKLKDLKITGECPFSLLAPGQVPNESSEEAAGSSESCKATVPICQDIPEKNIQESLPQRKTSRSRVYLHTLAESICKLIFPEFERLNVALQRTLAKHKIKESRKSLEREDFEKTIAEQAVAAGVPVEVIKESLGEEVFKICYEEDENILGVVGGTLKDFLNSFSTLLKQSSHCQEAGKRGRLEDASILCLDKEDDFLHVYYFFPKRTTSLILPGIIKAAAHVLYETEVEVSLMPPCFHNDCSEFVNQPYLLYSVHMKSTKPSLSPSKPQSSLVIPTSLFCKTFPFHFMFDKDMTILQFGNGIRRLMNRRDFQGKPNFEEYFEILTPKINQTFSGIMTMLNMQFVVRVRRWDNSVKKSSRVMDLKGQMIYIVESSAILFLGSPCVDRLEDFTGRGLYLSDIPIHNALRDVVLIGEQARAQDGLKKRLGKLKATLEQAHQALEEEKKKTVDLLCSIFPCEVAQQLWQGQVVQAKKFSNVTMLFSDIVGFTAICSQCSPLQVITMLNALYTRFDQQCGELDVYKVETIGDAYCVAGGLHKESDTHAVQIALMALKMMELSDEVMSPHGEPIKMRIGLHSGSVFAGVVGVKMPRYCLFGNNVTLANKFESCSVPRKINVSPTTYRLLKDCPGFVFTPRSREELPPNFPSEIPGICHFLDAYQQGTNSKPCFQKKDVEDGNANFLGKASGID", "T1 sequence (Q02153 1-619)": "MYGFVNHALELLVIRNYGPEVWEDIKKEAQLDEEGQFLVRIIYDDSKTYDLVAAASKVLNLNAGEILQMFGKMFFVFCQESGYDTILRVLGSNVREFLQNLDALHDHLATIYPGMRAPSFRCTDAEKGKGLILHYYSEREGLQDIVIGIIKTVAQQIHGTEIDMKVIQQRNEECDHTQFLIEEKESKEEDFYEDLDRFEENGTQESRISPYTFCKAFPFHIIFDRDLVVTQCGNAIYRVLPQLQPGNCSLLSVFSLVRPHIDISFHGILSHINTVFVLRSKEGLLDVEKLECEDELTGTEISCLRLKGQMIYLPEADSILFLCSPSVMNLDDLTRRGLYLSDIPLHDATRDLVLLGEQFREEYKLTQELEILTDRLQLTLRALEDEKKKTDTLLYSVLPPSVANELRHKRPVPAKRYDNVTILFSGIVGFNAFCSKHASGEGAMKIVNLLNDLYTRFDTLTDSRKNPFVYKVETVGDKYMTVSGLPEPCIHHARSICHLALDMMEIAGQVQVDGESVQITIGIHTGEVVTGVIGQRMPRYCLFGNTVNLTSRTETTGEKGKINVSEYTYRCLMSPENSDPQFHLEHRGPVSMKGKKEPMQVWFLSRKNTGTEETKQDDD", "test": "SPR binding to full-length sGC", "protocol": "Full-length human recombinant guanylyl cyclase (soluble) and bovine lung guanylyl cyclase (soluble) were obtained from Enzo lifesciences (catalogue numbers ALX-201-177 and ALX-202-039-C005). Biacore consumables were purchased from GE Healthcare (UK), including buffer stock solutions. All other reagents used were obtained from Sigma. Starting materials were either commercially available or synthesized according to methods reported in the literature. ^1H and ^13C NMR spectra were recorded on a Bruker AMX-300 or a Bruker AMX-500 spectrometer. Chemical shifts are reported as ppm relative to TMS internal standard. Mass spectra were recorded on a Fisons VG70-SE spectrometer (EI, FAB) or an Agilent 6100 Series LC-mass spectrometer using C-18 or C-4 columns. Microwave reactions were carried out using a CEM Discover microwave.\nSurface plasmon resonance (SPR) experiments were performed with a Biacore T200 instrument at 25 °C. Data processing and analysis were performed using BIAevaluation software and Scrubber2. All sensorgrams were double referenced by subtracting the response in a reference flowcell and a blank sample. Materials and methods used were the same as previously published.[24]"}, "[1]": {"system": "NMDA-stimulated cGMP production in cerebellar slices", "test": "NMDA-stimulated cGMP production in rat cerebellar slices", "type": "cell-based", "details": "100 μM", "protocol": "The ability of compound 10 to inhibit sGC in tissues was explored using NMDA-stimulated cGMP production in cerebellar slices, which depends on NO formation. Rat cerebellar slices were pre-incubated with compound 10 then treated with NMDA.\nBrain slices methods were conducted as described in detail.[37,38] Briefly, 0.4 mm thick sagittal cerebellar slices from 10-day-old animals were cut using a McIlwain tissue chopper. Experiments were carried out in the presence of the broad spectrum phosphodiesterase inhibitor IBMX (1 mM; 10 min preincubation) and, when appropriate, antagonists were added 10 min prior to IBMX. Following treatment, brain slices were inactivated in boiling Tris–HCl buffer (50 mM, pH 7.5) containing EDTA (4 mM) and homogenised by sonication after which aliquots were removed for measurement of protein (bicinchoninic acid method) and cGMP (radioimmunoassay)."}}, "note": "“Also recorded” adds a separate entry of the source."}
{"smiles": "O=[N+]([O-])c1ccc2nc(Nc3ccc(O)cc3)c(Nc3ccc(O)cc3)nc2c1", "note": "[Compound 10, 4,4′-((6-Nitroquinoxaline-2,3-diyl)bis(azanediyl))diphenol]", "values": [{"measurement": "Kd", "setting": "full-length enzyme (sGC)", "value": "19.4 ± 2.1", "unit": "µM"}, {"measurement": "inhibition of NMDA-induced cGMP generation", "setting": "[1]", "value": "almost completely; also recorded: inhibits cGMP production"}]}
